From patent US7741493B2, “Heterocyclic compounds as P2X7 ion channel blockers” (Aventis Pharmaceuticals Inc., priority 2003, dated 2010)
Counter-ions that a name gives are not always drawn. Like-named read-outs stand apart in the source and are kept apart here.

Target: T1, P2X7 (Homo sapiens, UniProt Q99572)
T1 sequence (Q99572 1-595): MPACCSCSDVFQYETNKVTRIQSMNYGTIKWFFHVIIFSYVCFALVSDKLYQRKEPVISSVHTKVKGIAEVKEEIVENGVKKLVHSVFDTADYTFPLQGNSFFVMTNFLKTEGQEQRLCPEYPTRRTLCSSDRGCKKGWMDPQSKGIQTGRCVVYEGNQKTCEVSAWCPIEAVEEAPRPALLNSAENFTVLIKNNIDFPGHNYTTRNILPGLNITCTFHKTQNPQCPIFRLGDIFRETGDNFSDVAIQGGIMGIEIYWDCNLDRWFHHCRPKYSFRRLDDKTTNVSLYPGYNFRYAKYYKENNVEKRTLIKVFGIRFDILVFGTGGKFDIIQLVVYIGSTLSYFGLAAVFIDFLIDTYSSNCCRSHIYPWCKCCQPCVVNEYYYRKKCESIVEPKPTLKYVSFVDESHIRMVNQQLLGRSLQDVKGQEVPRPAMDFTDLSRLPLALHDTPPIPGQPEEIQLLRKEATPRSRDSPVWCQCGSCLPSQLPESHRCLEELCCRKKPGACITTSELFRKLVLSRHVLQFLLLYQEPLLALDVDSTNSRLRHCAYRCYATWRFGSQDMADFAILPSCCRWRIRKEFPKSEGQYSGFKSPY
Assay: YO-PRO-1 dye uptake assay in U373 cells stably expressing P2X7
Assay type: cell-based
Parameters: The complete open reading frame of human P2X7 was amplified from Incyte clone 148057; expressed in transfected cells
Settings: dye uptake through P2X7, U373 cells, 300 μM BzATP, 5 μM YO-PRO-1, test compounds 30 nM to 3 μM
Protocol: Following a 24-hr exposure to DNA, cells were trypsinized and re-seeded at low density in the presence of […] G418. After incubation for 2 weeks, isolated clones were selected with cloning cylinders and replated in […] G418. Cell clones were then expanded. Clones were screened for P2X7 by applying ATP and recording the resultant current using patch clamp electrophysiology.
U373 cells stably expressing P2X7 were used to screen drugs via a dye uptake assay. Cells were plated overnight on collagen coated 96-well plates at a density of 35,000 cells per well. The following day, culture media was replaced with Mg^++ and Ca^++-free Hank's balanced salt solution and various concentrations of test compounds ranging from 30 nM to 3 μM. Cells were then allowed to incubate with test compounds at 37° C. for 20 minutes. Following this incubation period YO-PRO-1 dye (Molecular Probes, Eugene, Oreg., final concentration 5 μM) and 2′-& 3′-O-(4-Benzolybenzoyl)-Adenosine 5′-triphosphate (Sigma Chemical, St Louis, Mo., final concentration 300 μM) were added to the cells sequentially. Cells were then incubated at 37° C. for 1.5 hours. […] Fluorescence in the presence of test substances was compared to that in the absence of test substances (control).

SMILES | IC50 (read-out: IC50) | IC50 (IC50 (nM))
Clc1cccc([C@H]2NC(NCc3ccccc3)=N[C@H]2c2cccc(Cl)c2)c1 [[cis-4,5-bis-(3-Chlorophenyl)-4,5-dihydro-1H-imidazol-2-yl]-benzylamine hydrochloride] | 433 nM | –
Fc1ccc(CNC2=N[C@@H](c3cccc(Cl)c3)[C@@H](c3cccc(Cl)c3)N2)cc1F [[cis-4,5-bis-(3-Chlorophenyl)-4,5-dihydro-1H-imidazol-2-yl]-(3,4-difluorobenzyl)-amine hydrochloride] | 247 nM | –
c1ccc([C@H]2NC(NCC3CCCCC3)=N[C@H]2c2ccccc2)cc1 [(cis-4,5-Diphenyl-4,5-dihydro-1H-imidazol-2-yl)-(cyclohexylmethyl)amine hydrochloride] | 124 nM | –
Fc1ccc(OCC2=N[C@@H](c3cccc(F)c3)[C@@H](c3cccc(F)c3)N2)cc1 [2-[(4-Fluorophenoxy)methyl]-cis-4,5-bis-(3-fluorophenyl)-4,5-dihydro-1H-imidazole] | 346 nM | –
C[C@@]1(c2ccccc2)N=C(COC2CCC2)N[C@@H]1c1ccccc1 (relative stereo) [2-[(Cyclobutoxy)methyl]-cis-4,5-diphenyl-4-methyl-4,5-dihydro-1H-imidazole trifluoroacetate] | 722 nM | –
O=C(Nc1ccccc1)OC(C1=NC(c2ccccc2)C(c2ccccc2)N1)c1ccccc1 (centres unmarked) [trifluoroacetate] | 625 nM | –
Fc1cc(F)cc(CNC2=N[C@@H](c3ccccc3)[C@@H](c3ccccc3)N2)c1 [(cis-4,5-Diphenyl-4,5-dihydro-1H-imidazol-2-yl)-(3,5-difluorobenzyl)amine hydrochloride] | 102 nM | –
Fc1ccc(CSC2=N[C@@H](c3ccccc3)[C@@H](c3ccccc3)N2)cc1 [cis-4,5-diphenyl-2-(4-fluorobenzyl)thio-4,5-dihydro-1H-imidazole] | 300 nM | –
Cc1ccc(F)cc1CC1=N[C@@H](c2ccccc2)[C@@H](c2ccccc2)N1 [trifluoroacetate] | 319 nM | –
Cc1ccccc1CC1=N[C@H](c2ccccc2)[C@H](c2ccccc2)N1 [cis-4,5-diphenyl-2-(2-methylbenzyl)-4,5-dihydro-1H-imidazole] | – | 321 nM
Cc1ccc([C@H]2NC(NCc3ccc(F)c(F)c3)=N[C@H]2c2ccc(C)cc2)cc1 [[cis-4,5-bis-(4-Methylphenyl)-4,5-dihydro-1H-imidazol-2-yl]-(3,4-difluorobenzyl)-amine hydrochloride] | 150 nM | –
C[C@]1(c2ccccc2)N=C(Cc2ccc(F)cc2F)N[C@H]1c1ccccc1 (relative stereo) [2-(2,4-Difluorobenzyl)-cis-4,5-diphenyl-4-methyl-4,5-dihydro-1H-imidazole trifluoroacetate] | 16 nM | –
COc1ccccc1CCC1=N[C@@H](c2ccccc2)[C@@H](c2ccccc2)N1 [2-[2-(2-Methoxyphenyl)ethyl]-cis-4,5-diphenyl-4,5-dihydro-1H-imidazole trifluoroacetate] | 832 nM | –
Fc1cccc([C@H]2NC(CCc3ccc(F)c(F)c3)=N[C@H]2c2cccc(F)c2)c1 [2-[2-(3,4-Difluorophenyl)ethyl]-cis-4,5-bis-(3-fluorophenyl)-4,5-dihydro-1H-imidazole] | 173 nM | –
Fc1ccccc1CCC1=N[C@@H](c2ccccc2)[C@@H](c2ccccc2)N1 [2-[2-(2-Fluorophenyl)ethyl]-cis-4,5-diphenyl-4,5-dihydro-1H-imidazole trifluoroacetate] | 164 nM | –
Fc1cccc([C@H]2NC(CCc3ccccc3F)=N[C@H]2c2cccc(F)c2)c1 [2-[2-(2-Fluorophenyl)ethyl]-cis-4,5-bis-(3-fluorophenyl)-4,5-dihydro-1H-imidazole trifluoroacetate] | 304 nM | –
Fc1ccc(CNC2=N[C@@H](c3cccc(Cl)c3)[C@@H](c3cccc(Cl)c3)N2)cc1 [[cis-4,5-bis-(3-Chlorophenyl)-4,5-dihydro-1H-imidazol-2-yl]-(4-fluorobenzyl)amine hydrochloride] | 318 nM | –
Fc1cccc(CCC2=N[C@@H](c3ccccc3)[C@@H](c3ccccc3)N2)c1 [2-[2-(3-Fluorophenyl)ethyl]-cis-4,5-diphenyl-4,5-dihydro-1H-imidazole trifluoroacetate] | 31 nM | –
c1ccc(COCC2=N[C@@H](c3ccccc3)[C@@H](c3ccccc3)N2)cc1 [cis-4,5-diphenyl-2-benzyloxymethyl-4,5-dihydro-1H-imidazole] | 325 nM | –

SMILES | IC50 (read-out: IC50) | IC50 (IC50 (nM))
c1ccc([C@H]2NC(CC3Cc4ccccc4C3)=N[C@H]2c2ccccc2)cc1 [2-indan-2-ylmethyl-cis-4,5-diphenyl-4,5-dihydro-1H-imidazole trifluoroacetate] | 240 nM | –
Brc1ccccc1CSC1=N[C@@H](c2ccccc2)[C@@H](c2ccccc2)N1 [cis-4,5-diphenyl-2-(2-bromobenzyl)thio-4,5-dihydro-1H-imidazole] | 521 nM | –
C[C@@]1(c2ccc(F)cc2)N=C(NCc2ccc(F)cc2)N[C@@H]1c1ccc(F)cc1 | 139 nM | –
C[C@@]1(c2ccccc2)N=C(NCc2ccc(F)cc2)N[C@@H]1c1ccccc1 (relative stereo) [(cis-4,5-Diphenyl-4-methyl-4,5-dihydro-1H-imidazol-2-yl)-(4-fluorobenzyl)amine hydrochloride] | 63 nM | –
Fc1cccc(CC2=N[C@@H](c3ccccc3)[C@@H](c3ccccc3)N2)c1F [2-(2,3-Difluorobenzyl)-cis-4,5-diphenyl-4,5-dihydro-1H-imidazole trifluoroacetate] | 930 nM | –
Fc1ccc(OCC2=N[C@@H](c3ccccc3)[C@@H](c3ccccc3)N2)cc1 [2-[(4-Fluorophenoxy)methyl]-cis-4,5-diphenyl-4,5-dihydro-1H-imidazole trifluoroacetate] | 401 nM | –
Fc1cccc(OCC2=N[C@@H](c3cccc(F)c3)[C@@H](c3cccc(F)c3)N2)c1 [2-[(3-Fluorophenoxy)methyl]-cis-4,5-bis-(3-fluorophenyl)-4,5-dihydro-1H-imidazole] | 316 nM | –
COC(C1=N[C@@H](c2ccccc2)[C@@H](c2ccccc2)N1)c1ccccc1 (stereo partly drawn) [cis-4,5-diphenyl-2-(methoxy-phenyl-methyl)-4,5-dihydro-1H-imidazole] | 101 nM | –
Fc1cccc([C@H]2NC(NCc3ccccc3)=N[C@H]2c2cccc(F)c2)c1 [[cis-4,5-bis-(3-Fluorophenyl)-4,5-dihydro-1H-imidazol-2-yl]-benzylamine hydrochloride] | 90 nM | –
Fc1ccc([C@H]2NC(CCc3ccccc3)=N[C@H]2c2ccc(F)cc2)cc1 [cis-4,5-bis(4-fluorophenyl)-2-(2-phenylethyl)-4,5-dihydro-1H-imidazole] | 277 nM | –
c1ccc(SCC2=N[C@@H](c3ccccc3)[C@@H](c3ccccc3)N2)cc1 [2-[(Phenylsulfanyl)methyl]-cis-4,5-diphenyl-4,5-dihydro-1H-imidazole trifluoroacetate] | 198 nM | –
CC(C)(CC1=N[C@@H](c2ccccc2)[C@@H](c2ccccc2)N1)c1ccccc1 | 10 nM | –
Fc1ccc(F)c(CC2=N[C@@H](c3ccccc3)[C@@H](c3ccccc3)N2)c1 [trifluoroacetate] | 142 nM | –
Fc1cccc([C@H]2NC(Cc3ccccc3F)=N[C@H]2c2cccc(F)c2)c1 [2-(2-Fluorobenzyl)-cis-4,5-bis-(3-fluorophenyl)-4,5-dihydro-1H-imidazole trifluoroacetate] | 449 nM | –
Fc1cccc(CNC2=N[C@@H](c3ccccc3Br)[C@@H](c3ccccc3Br)N2)c1 [[cis-4,5-bis-(2-Bromophenyl)-4,5-dihydro-1H-imidazol-2-yl]-(3-fluorobenzyl)amine hydrochloride] | 782 nM | –
Cc1cccc(CC2=N[C@@H](c3ccccc3)[C@@H](c3ccccc3)N2)c1 [cis-4,5-diphenyl-2-(3-methylbenzyl)-4,5-dihydro-1H-imidazole] | 376 nM | –
Fc1ccc(CSC2=N[C@@H](c3ccccc3)[C@@H](c3ccccc3)N2)cc1F [2-[(3,4-Difluorobenzyl)thio]-cis-4,5-diphenyl-4,5-dihydro-1H-imidazole hydrochloride] | 461 nM | –
Fc1ccc([C@H]2NC(NCc3ccccc3)=N[C@H]2c2ccc(F)cc2)cc1 [[cis-4,5-bis-(4-Fluorophenyl)-4,5-dihydro-1H-imidazol-2-yl]-benzylamine hydrochloride] | 371 nM | –
Brc1ccccc1CNC1=N[C@@H](c2ccccc2)[C@@H](c2ccccc2)N1 [cis-4,5-diphenyl-2-(2-bromobenzyl)amino-4,5-dihydro-1H-imidazole] | 503 nM | –
